{
  "source": "patent US7935366B2",
  "about": "(priority 2006, dated 2011)",
  "key": {"[1]": {"settings": "some subjects; cited from earlier work"}, "[2]": {"experiment": "Percent binding capacity of *Cs at different pH", "type": "physicochemical"}, "DNA damage": {"test_system": "DNA damage", "settings": "FIG. 3"}, "[3]": {"experiment": "Whole body retention of ^137Cs, CKF vs Prussian Blue", "type": "in vivo"}, "[4]": {"settings": "experimental animals"}, "[5]": {"test_system": "rat bone marrow erythrocytes", "type": "in vivo", "settings": "FIG. 2", "source_text": "[…]. The geno-toxicity assessment of [CaK2Fe(CN)6] and Prussian Blue for the formation of micronuclei (i.e. part of parent nucleus, which is left behind in the cytoplasm as a daughter nuclei, due to damage to chromosomes during cell division)."}, "[6]": {"type": "in vivo", "settings": "stable iodine equivalent to 100 mg/70 Kg adult per day administered orally, 2 h post i.p. ^131I"}, "[7]": {"type": "in vivo", "settings": "stable iodine equivalent to 100 mg/70 Kg adult per day mixed with diet, 2 h post i.p. ^131I"}, "[8]": {"type": "in vivo", "settings": "24 h post ip. ^131I; stable iodine given 2 h post ^131I"}, "[9]": {"type": "in vivo", "settings": "rats; 24 h post oral ^131I; stable iodide equivalent to 100 mg/70 Kg adult given orally 2 h post ^131I"}},
  "note": "Where two headings read alike, the source gives them in different places.",
  "data": [
    {"smiles": "[C-]#N.[C-]#N.[C-]#N.[C-]#N.[C-]#N.[C-]#N.[C-]#N.[C-]#N.[C-]#N.[C-]#N.[C-]#N.[C-]#N.[C-]#N.[C-]#N.[C-]#N.[C-]#N.[C-]#N.[C-]#N.[Fe+2].[Fe+2].[Fe+2].[Fe+3].[Fe+3].[Fe+3].[Fe+3]", "note": "[PB, ferric hexa-cyanoferrate (II)]", "values": [
      {"measurement": "constipation", "setting": "[1]", "result": "induce constipation in some subjects"},
      {"measurement": "binding with *Cs", "setting": "[2]; FIG. 4, neutral pH", "result": "weaker binding"},
      {"measurement": "PERCENT BINDING CAPACITY of *Cs", "setting": "[2]; pH 2", "result": "27 ± 2", "unit": "%"},
      {"measurement": "PERCENT BINDING CAPACITY of *Cs", "setting": "[2]; pH 3", "result": "58 ± 0.7", "unit": "%"},
      {"measurement": "PERCENT BINDING CAPACITY of *Cs", "setting": "[2]; pH 4", "result": "75 ± 0.4", "unit": "%"},
      {"measurement": "PERCENT BINDING CAPACITY of *Cs", "setting": "[2]; pH 5", "result": "75 ± 0.3", "unit": "%"},
      {"measurement": "PERCENT BINDING CAPACITY of *Cs", "setting": "[2]; pH 6", "result": "67 ± 0.6", "unit": "%"},
      {"measurement": "PERCENT BINDING CAPACITY of *Cs", "setting": "[2]; pH 7", "result": "59 ± 0.9", "unit": "%"},
      {"measurement": "DNA damage in alkaline comet assay", "setting": "DNA damage", "result": "do not induce any apparent DNA damage"},
      {"measurement": "WHOLE BODY RETENTION - ^137Cs", "setting": "[3]; day 0", "result": 100, "unit": "percent administered dose"},
      {"measurement": "WHOLE BODY RETENTION - ^137Cs", "setting": "[3]; day 1", "result": "61 ± 10", "unit": "percent administered dose"},
      {"measurement": "WHOLE BODY RETENTION - ^137Cs", "setting": "[3]; day 4", "result": "31 ± 4", "unit": "percent administered dose"},
      {"measurement": "WHOLE BODY RETENTION - ^137Cs", "setting": "[3]; day 8", "result": "21 ± 3", "unit": "percent administered dose"},
      {"measurement": "WHOLE BODY RETENTION - ^137Cs", "setting": "[3]; day 12", "result": "15 ± 2", "unit": "percent administered dose"},
      {"measurement": "WHOLE BODY RETENTION - ^137Cs", "setting": "[3]; day 16", "result": "11 ± 2", "unit": "percent administered dose"},
      {"measurement": "WHOLE BODY RETENTION - ^137Cs", "setting": "[3]; day 20", "result": "7 ± 1", "unit": "percent administered dose"},
      {"measurement": "WHOLE BODY RETENTION - ^137Cs", "setting": "[3]; day 24", "result": "6 ± 1", "unit": "percent administered dose"},
      {"measurement": "WHOLE BODY RETENTION - ^137Cs", "setting": "[3]; day 28", "result": "5 ± 1", "unit": "percent administered dose"},
      {"measurement": "speed of removing *Cs from in vivo system", "setting": "[3]; experimental animals", "result": "slow"},
      {"measurement": "gastro-intestinal and cardio-toxicity (histo-pathologic changes)", "setting": "[4]", "result": "induces gastro-intestinal and cardio-toxicity"},
      {"measurement": "micronuclei formation, means±SE versus control", "setting": "[5]; all the tested doses", "result": "not significantly different from control"},
      {"measurement": "geno-toxicity, micronuclei formation", "setting": "[5]; dose of 5 mg/100 g BW (equivalent to 3.5 g/d/70 Kg adult)", "result": "did not induce any toxicity"},
      {"measurement": "geno-toxicity, micronuclei formation", "setting": "[5]; five and ten times the dose of 5 mg/100 g BW", "result": "marginal increase in the formation of micronuclei"}
    ]},
    {"smiles": "[K+].[O-][I+2]([O-])[O-]", "note": "[KIO3]", "values": [
      {"measurement": "WHOLE BODY RETENTION OF RADIO-IODINE", "setting": "[6]; day 1", "result": "28 ± 4"},
      {"measurement": "WHOLE BODY RETENTION OF RADIO-IODINE", "setting": "[6]; day 2", "result": "12 ± 2"},
      {"measurement": "WHOLE BODY RETENTION OF RADIO-IODINE", "setting": "[6]; day 3", "result": "10 ± 3"},
      {"measurement": "WHOLE BODY RETENTION OF RADIO-IODINE", "setting": "[6]; day 4", "result": "8 ± 1"},
      {"measurement": "WHOLE BODY RETENTION OF RADIO-IODINE", "setting": "[6]; day 5", "result": "7 ± 2"},
      {"measurement": "WHOLE BODY RETENTION OF RADIO-IODINE", "setting": "[6]; day 6", "result": "7 ± 4"},
      {"measurement": "WHOLE BODY RETENTION OF RADIO-IODINE", "setting": "[6]; day 7", "result": "8 ± 2"},
      {"measurement": "WHOLE BODY RETENTION OF RADIO-IODINE", "setting": "[6]; day 9", "result": "6 ± 2"},
      {"measurement": "WHOLE BODY RETENTION OF RADIO-IODINE", "setting": "[7]; day 1", "result": "28 ± 3"},
      {"measurement": "WHOLE BODY RETENTION OF RADIO-IODINE", "setting": "[7]; day 2", "result": "12 ± 2"},
      {"measurement": "WHOLE BODY RETENTION OF RADIO-IODINE", "setting": "[7]; day 3", "result": "10 ± 4"},
      {"measurement": "WHOLE BODY RETENTION OF RADIO-IODINE", "setting": "[7]; day 4", "result": "8 ± 2"},
      {"measurement": "WHOLE BODY RETENTION OF RADIO-IODINE", "setting": "[7]; day 5", "result": "7 ± 3"},
      {"measurement": "WHOLE BODY RETENTION OF RADIO-IODINE", "setting": "[7]; day 6", "result": "7 ± 1"},
      {"measurement": "WHOLE BODY RETENTION OF RADIO-IODINE", "setting": "[7]; day 7", "result": "8 ± 2"},
      {"measurement": "WHOLE BODY RETENTION OF RADIO-IODINE", "setting": "[7]; day 9", "result": "6 ± 3"},
      {"measurement": "WHOLE BODY RETENTION OF RADIO-IODINE", "setting": "[7]; day 10", "result": "3 ± 4"},
      {"measurement": "WHOLE BODY RETENTION OF RADIO-IODINE", "setting": "[7]; day 11", "result": "2 ± 1"},
      {"measurement": "WHOLE BODY RETENTION OF RADIO-IODINE", "setting": "[7]; day 13", "result": "2 ± 2"},
      {"measurement": "WHOLE BODY RETENTION OF RADIO-IODINE", "setting": "[7]; day 14", "result": "1 ± 1"},
      {"measurement": "Percent ^131I WBR", "setting": "[8]", "result": "40 ± 2", "unit": "%"},
      {"measurement": "Percent ^131I in BLOOD", "setting": "[8]", "result": "1.6 ± 0.4", "unit": "%"},
      {"measurement": "Percent ^131I in CARCAS", "setting": "[8]", "result": "17 ± 2", "unit": "%"},
      {"measurement": "Percent ^131I in EXCRETA", "setting": "[8]", "result": "64 ± 5", "unit": "%"},
      {"measurement": "Percent ^131I in LIVER + GUT", "setting": "[8]", "result": "16 ± 1", "unit": "%"},
      {"measurement": "Percent ^131I in THYROID", "setting": "[8]", "result": "10 ± 1", "unit": "%"},
      {"measurement": "Percent ^131I WBR", "setting": "[9]", "result": "14 ± 3", "unit": "percent administered dose"},
      {"measurement": "Percent ^131I in BLOOD", "setting": "[9]", "result": "0.6 ± 0.05", "unit": "percent administered dose"},
      {"measurement": "Percent ^131I in CARCAS", "setting": "[9]", "result": "8 ± 0.5", "unit": "percent administered dose"},
      {"measurement": "Percent ^131I in EXCRETA", "setting": "[9]", "result": "81 ± 1", "unit": "percent administered dose"},
      {"measurement": "Percent ^131I in LIVER + GUT", "setting": "[9]", "result": "7 ± 0.5", "unit": "percent administered dose"},
      {"measurement": "Percent ^131I in THYROID", "setting": "[9]", "result": "4 ± 0.5", "unit": "percent administered dose"}
    ]}
  ]
}
